The text below walks through data of patent publication US20240382452A1, “COMPOSITIONS AND DOSAGE FORMS FOR TOPICAL AND TRANSDERMAL DELIVERY OF ACTIVES AND METHODS OF USE” (priority 2021, published 2024).

Data set [1] in a line: Varespladib DMSO/ethanol pad applied to simulated viper bite on the inventor's calf. In kind it is in vivo, human. The following applies: 75 mg/mL in DMSO/ethanol, 2 mL on absorbent pad containing 4% lidocaine; patch applied 24 hours. As to the method: The free-acid of varespladib […] was dissolved at 100 mg/mL in DMSO, then diluted with ethanol to 75 mg/mL and 2 mL applied to an absorbent pad containing 4% lidocaine and applied to a simulated viper bite on the inventor's calf applied by penetration to 1 cm with 18 g hypodermic needles similar in depth to what would be experienced with a large viper's bite.

In data set [2] the test system is Oxyuranus scutellatus venom. Put plainly: Snake venom study, Oxyuranus scutellatus severe neurotoxicity, topical treatment. It is filed as in vivo. The following applies: individual mice #1-#4; in 80% DMSO/20% ethanol in <50% 2.5%/2.5% lidocaine/prilocaine cream +/- petrolatum cover. The source says:
Additional studies used historical controls from earlier studies with venom doses from same lots:
Oxyuranus scutellatus severe neurotoxicity and 3-(5′-benzyl-2′-carbamoyl-[1,1′-biphenyl]-3-yl)-2-methylpropanoic acid as the racemic mixture in 80% DMSO/20% ethanol in <50% 2.5%/2.5% lidocaine/prilocaine cream+/−petrolatum cover (1 each).

“And” between values parts separate entries of the source, which are not always exact repeats. Equal entries are not always repeated.

Turning to `CCc1c(C(=O)C(N)=O)c2c(OCC(=O)O)cccc2n1Cc1ccccc1` [varespladib], in data set [1], the “pain, discomfort or redness at wounded area” value is listed as “no pain, discomfort or redness”.
As for `CC(Cc1cccc(-c2cc(Cc3ccccc3)ccc2C(N)=O)c1)C(=O)O` (racemic) [3-(5′-benzyl-2′-carbamoyl-[1,1′-biphenyl]-3-yl)-2-methylpropanoic acid], the Cessation of breathing in data set [2] was 64 min and 44 min and 104 min and 111 min.
